Consider 58 molecules from patent publication US20230348456A1, “QUINAZOLINONES, PHARMACEUTICAL COMPOSITIONS CONTAINING THE SAME, AND METHODS OF USING THE SAME” (Repare Therapeutics Inc., priority 2022, published 2023).

For the assay, the target named is recombinant human Myt1 (Homo sapiens (Human), UniProt Q99640). Kind of assay: Myt1 enzymatic assay (ADP-Glo kinase assay). Particulars: recombinant human Myt1 18 nM, ATP 10 μM. It is filed as biochemical. As for the experimental part: Detection of Myt1 kinase activity utilized a recombinant human Myt1 kinase assay measuring the hydrolysis of ATP using a commercially available ADP-Glo Assay (ADP-Glo™ Kinase Assay from Promega, 10 000 assays, #V9102). Briefly, 5 μL recombinant human Myt1 (full length PKMYT1 recombinant human protein expressed in insect cells from Thermo Fisher #A33387; ˜80% purity) was prepared in reaction buffer (70 mM HEPES, 3 mM MgCl2, 3 mM MnCl2, 50 μg/ml PEG 20000, 3 μM Na-orthovanadate, 1.2 mM DTT) and added to 384 well white polystyrene, flat bottom well, non-treated, microplate (Corning #3572). After this, 5 μL of compounds (diluted in reaction buffer to 0.5% DMSO) was added to the microplate and the plate was spun briefly and incubated at 22° C. for 15 minutes. Ultra-Pure Adenosine Triphosphate (ATP) solution (ADP-Glo kit from Promega) was diluted in reaction buffer and 5 μL was added to the microplate, spun down briefly and incubated for 60 minutes at 30° C. The final Myt1 enzyme concentration was 18 nM and the final ATP concentration was 10 μM. After the 60-minute incubation, 15 μL of ADP-Glo reagent was added and the plate was spun briefly and sealed and incubated in the dark for 40 minutes at 22° C. Following this, 30 μL of kinase detection reagent was added per well and the plate was spun briefly, sealed and incubated for 45-60 minutes at 22° C. in the dark. Luminescence was read using the Envision (250 ms integration). The IC50 and the % max inhibition were calculated for each inhibitor compound tested.
Chain of recombinant human Myt1 (Q99640 whole entry): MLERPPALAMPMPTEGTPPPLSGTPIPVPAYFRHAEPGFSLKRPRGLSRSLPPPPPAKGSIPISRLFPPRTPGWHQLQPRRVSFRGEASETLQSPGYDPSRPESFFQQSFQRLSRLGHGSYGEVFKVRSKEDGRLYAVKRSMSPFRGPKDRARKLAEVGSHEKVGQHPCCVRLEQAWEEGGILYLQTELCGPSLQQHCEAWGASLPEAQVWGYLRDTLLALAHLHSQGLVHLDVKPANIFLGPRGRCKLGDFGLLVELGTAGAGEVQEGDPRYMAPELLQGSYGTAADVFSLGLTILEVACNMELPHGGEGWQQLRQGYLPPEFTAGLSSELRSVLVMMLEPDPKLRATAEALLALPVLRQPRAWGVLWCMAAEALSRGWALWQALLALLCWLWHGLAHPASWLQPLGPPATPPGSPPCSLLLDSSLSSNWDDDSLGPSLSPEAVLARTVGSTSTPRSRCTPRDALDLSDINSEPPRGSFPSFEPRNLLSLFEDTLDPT
With `Cc1ccc2[nH]ncc2c1-c1cc(Br)c2nc[nH]c(=O)c2c1N` [Compound 133], the IC50 – broadly, the concentration at which inhibition is half-maximal – was 26 nM.
For the molecule `Cc1ccc(O)cc1-c1cc(-c2nc(Cl)cs2)c2c(c1N)C(=O)NC2` [Compound 161, 7-amino-4-(4-chlorothiazol-2-yl)-6-(5-hydroxy-2-methylphenyl)isoindolin-1-one], the IC50 came out at 253 nM.
The figure for `Cc1ccc2[nH]ncc2c1-c1cc(-c2ccc(F)cn2)c2c(c1N)C(=O)NC2` [Compound 62] is 539 nM; for `COCCNc1cc(-c2nc3c(Br)cc(-c4cccc5[nH]ncc45)c(N)c3c(=O)[nH]2)ccn1` [Compound 37] it is 11 nM.
Take `Cc1ccc(O)cc1-c1cc(Br)c2c(c1N)C(=O)NC2` [Compound 69]: the IC50 was 864 nM.
Regarding `Cc1ccc(O)cc1-c1cc(-c2ncc(Cl)s2)c2c(c1N)C(=O)NC2` [Compound 156], the concentration for half-maximal inhibition (IC50) was determined as 576 nM.
The figure for `Nc1c(-c2cccc3[nH]ncc23)cc(-c2cccnn2)c2nc[nH]c(=O)c12` [Compound 131] is 70 nM; for `Nc1c(-c2cccc3[nH]ncc23)cc(-c2cnn(C3COC3)c2)c2nc(-c3ccncc3)[nH]c(=O)c12` [Compound 58] it is 1 nM; for `Nc1c(-c2cccc3[nH]ncc23)cc(-n2ccc(C3CC3)n2)c2nc(-c3cccnc3)[nH]c(=O)c12` [Compound 74, 5-amino-8-(3-cyclopropylpyrazol-1-yl)-6-(1H-indazol-4-yl)-2-(3-pyridyl)-3H-quinazolin-4-one] it is 11 nM.
Consider `Nc1c(-c2cccc3[nH]ncc23)cc(-c2cnccn2)c2nc[nH]c(=O)c12` [Compound 130], for which the 50% inhibitory concentration (IC50) was 45 nM.
On to `CN1CCN(c2cc(-c3nc4c(Br)cc(-c5cccc6[nH]ncc56)c(N)c4c(=O)[nH]3)ccn2)CC1` [Compound 38], for which the IC50 came out at 10 nM.
For `Nc1c(-c2cccc3[nH]ncc23)cc(C2=CCC(F)(F)CC2)c2nc(-c3ccncc3)[nH]c(=O)c12` [Compound 71], the IC50 turned out to be 21 nM.
For the molecule `Cc1ccc(O)c(C)c1-c1cc(Br)c2c(c1N)C(=O)NC2` [Compound 141], the IC50 stood at 92 nM.
Under `Nc1c(-c2cccc3[nH]ncc23)cc(-c2nccs2)c2nc(Cc3ccccc3)[nH]c(=O)c12` [Compound 46] stands > 2000 nM; under `Nc1c(-c2cccc3[nH]ncc23)cc(-c2nccs2)c2nc(-c3ccccc3)[nH]c(=O)c12` [Compound 1, 5-amino-6-(1H-indazol-4-yl)-2-phenyl-8-(thiazol-2-yl)quinazolin-4(3H)-one], 4 nM; under `Nc1c(-c2cccc3[nH]ncc23)cc(-c2nc(C(F)(F)F)cs2)c2nc[nH]c(=O)c12` [Compound 119], 55 nM.
Under `Cc1ncccc1-c1nc2c(-c3nccs3)cc(-c3cccc4[nH]ncc34)c(N)c2c(=O)[nH]1` [Compound 113] stands 94 nM.
As for `Nc1c(-c2cccc3[nH]ncc23)cc(-c2nccs2)c2nc(CCc3cccnc3)[nH]c(=O)c12` [Compound 112], the IC50 came out at 34 nM.
Take `Cc1ccc(O)cc1-c1cc(-c2nc(C(=O)NC(C)C)cs2)c2c(c1N)C(=O)NC2` [Compound 158]: the IC50 was found to be 55 nM.
Turning to `Nc1c(-c2cccc3[nH]ncc23)cc(-c2ccns2)c2nc[nH]c(=O)c12` [Compound 132], the IC50 is 4 nM.
Under `Nc1c(-c2cccc3[nH]ncc23)cc(-c2cccc(OC[C@H]3CCCO3)n2)c2nc(-c3ccncc3)[nH]c(=O)c12` [Compound 70] stands 4 nM; under `Cc1ccc(O)cc1-c1cc(-c2nc(C(=O)N3CCOCC3)cs2)c2c(c1N)C(=O)NC2` [Compound 157], 244 nM.
The figure for `Cc1ccc2[nH]ncc2c1-c1cc(-c2nccs2)c2nc[nH]c(=O)c2c1N` [Compound 98] is 5 nM; for `Nc1c(-c2cccc3[nH]ncc23)cc(-c2cnn(C3COC3)c2)c2nc(-c3cccnc3)[nH]c(=O)c12` [Compound 100] it is 5 nM; for `Cc1ccc(O)c(C)c1-c1cc(-c2ccc(F)cn2)c2c(c1N)C(=O)NC2` [Compound 140] it is 111 nM.
In the case of `Nc1c(-c2cccc3[nH]ncc23)cc(-c2ccccn2)c2nc[nH]c(=O)c12` [Compound 82], the IC50 was determined as 35 nM.
Take `Cc1ccc(O)c(C)c1-c1cc(C2CC2)c2nc(-c3ccncc3)[nH]c(=O)c2c1N` [Compound 134, 5-amino-8-cyclopropyl-6-(3-hydroxy-2,6-dimethyl-phenyl)-2-(4-pyridyl)-3H-quinazolin-4-one]: the IC50 is 5 nM.
For the molecule `COCCOc1ccc(-c2nc3c(Br)cc(-c4cccc5[nH]ncc45)c(N)c3c(=O)[nH]2)cn1` [Compound 103], the IC50 came out at 8 nM.
The figure for `Cc1ccc(O)cc1-c1cc(-c2nc(C(=O)NCCO)cs2)c2c(c1N)C(=O)NC2` [Compound 145] is 645 nM; for `Cc1ccc(O)cc1-c1cc(-c2ccccc2)c2c(c1N)C(=O)NC2` [Compound 163, 7-amino-6-(5-hydroxy-2-methyl-phenyl)-4-phenyl-isoindolin-1-one] it is 1070 nM; for `Nc1c(-c2cccc3[nH]ncc23)cc(-c2ccc(F)s2)c2nc[nH]c(=O)c12` [Compound 117] it is 15 nM.
Turning to `Nc1c(-c2cccc3[nH]ncc23)cc(C2CC2)c2nc(-c3cccnc3)[nH]c(=O)c12` [Compound 92], the IC50 was determined as 7 nM.
The figure for `Nc1c(-c2cccc3[nH]ncc23)cc(-c2cccc(OCCN3CCCC3)n2)c2nc(-c3ccncc3)[nH]c(=O)c12` [Compound 54] is 2 nM.
As for `Cc1ccc(O)cc1-c1cc(-c2ccccn2)c2c(c1N)C(=O)NC2` [Compound 136], the IC50 worked out at 548 nM.
Under `Nc1c(-c2cccc3[nH]ncc23)ccc2nc(-c3ccncc3)[nH]c(=O)c12` [Compound 96] stands 67 nM; under `Nc1c(-c2cccc3[nH]ncc23)cc(-c2cnn(C3CCOCC3)c2)c2nc(-c3ccncc3)[nH]c(=O)c12` [Compound 67], 3 nM; under `Nc1c(-c2cccc3[nH]ncc23)cc(C2=CCOCC2)c2nc(-c3ccncc3)[nH]c(=O)c12` [Compound 64], 3 nM.
The figure for `Cc1ccc(O)cc1-c1cc(-c2ncc(C(=O)NCCO)s2)c2c(c1N)C(=O)NC2` [Compound 147] is 209 nM; for `Nc1ccc(-c2nc3c(-c4nccs4)cc(-c4cccc5[nH]ncc45)c(N)c3c(=O)[nH]2)cc1` [Compound 16] it is 54 nM.
Under `Cc1ccc(O)cc1-c1ccc2c(c1N)C(=O)NC2` [Compound 85] stands 16000 nM; under `Cc1ccc2[nH]ncc2c1-c1cc(-c2cccc(OCCN3CCCC3)n2)c2nc[nH]c(=O)c2c1N` [Compound 89], 13 nM; under `Nc1c(-c2cccc3[nH]ncc23)cc(-c2cc(F)cc(F)c2)c2nc[nH]c(=O)c12` [Compound 124], 66 nM.
In the case of `Nc1c(-c2cccc3[nH]ncc23)cc(Br)c2nc(-c3ccc(N4CCN(C5CC5)C(=O)C4)nc3)[nH]c(=O)c12` [Compound 11], the concentration for half-maximal inhibition (IC50) was 5 nM.
On to `Cc1ccc(O)cc1-c1cc(-c2ncccn2)c2c(c1N)C(=O)NC2` [Compound 108], for which the concentration for half-maximal inhibition (IC50) worked out at 73 nM.
Regarding `Nc1c(-c2cccc3[nH]ncc23)cc(-n2ccc(C3CCOCC3)n2)c2nc(-c3cccnc3)[nH]c(=O)c12` [Compound 76], the IC50 stood at 8 nM.
In the case of `Cn1ccc(-c2cc(-c3cccc4[nH]ncc34)c(N)c3c(=O)[nH]c(-c4ccncc4)nc23)n1` [Compound 61], the IC50 was 2 nM.
Under `Nc1c(-c2cccc3[nH]ncc23)cc(-c2cnn(C(F)F)c2)c2nc(-c3ccncc3)[nH]c(=O)c12` [Compound 73] stands 4 nM.
In the case of `Nc1c(-c2cccc3[nH]ncc23)cc(-c2nc(Cl)cs2)c2nc[nH]c(=O)c12` [Compound 116], the IC50 came out at 13 nM.
For `Nc1c(-c2cccc3[nH]ncc23)cc(-c2ccc(C(F)(F)F)s2)c2nc[nH]c(=O)c12` [Compound 126], the half-maximal inhibitory concentration (IC50) was 880 nM.
Under `Nc1c(-c2cccc3[nH]ncc23)cc(-c2cnn(CC3CC3)c2)c2nc(-c3ccncc3)[nH]c(=O)c12` [Compound 68] stands 6 nM; under `N#Cc1ccc(-c2cc(-c3cccc4[nH]ncc34)c(N)c3c(=O)[nH]cnc23)s1` [Compound 118], 11 nM.
The figure for `Nc1c(-c2cccc3[nH]ncc23)cc(Br)c2nc(-c3ccc(N4CCCCC4CO)nc3)[nH]c(=O)c12` (stereo not shown) [Compound 44] is 11 nM; for `Nc1c(-c2cccc3[nH]ncc23)cc(-c2nccs2)c2nc(-c3cccnn3)[nH]c(=O)c12` [Compound 41] it is 10 nM; for `N#Cc1ccc(-c2nc3c(-c4nccs4)cc(-c4cccc5[nH]ncc45)c(N)c3c(=O)[nH]2)cc1` [Compound 5] it is 89 nM.
`Nc1c(-c2cccc3[nH]ncc23)cc(-c2cccc(OCc3ncco3)c2)c2nc[nH]c(=O)c12` [Compound 95]: the IC50 was found to be 10 nM.
The figure for `Nc1c(-c2cccc3[nH]ncc23)cc(Br)c2nc(-c3ccc(N4CCC(C(=O)O)CC4)nc3)[nH]c(=O)c12` [Compound 32] is 6 nM; for `Nc1c(-c2cccc3[nH]ncc23)cc(Br)c2nc(-c3ccc(NCCN4CCCC4)nc3)[nH]c(=O)c12` [Compound 23] it is 4 nM.
Consider `Cc1ccc(O)cc1-c1cc(-c2ccccn2)c2nc[nH]c(=O)c2c1N` [Compound 137], for which the IC50 stood at 51 nM.
